According to patent US20030100550A1, “Carboxamide diazepin derivatives, preparation method, use as medicines, pharmaceutical compositions and use thereof” (priority 2002, published 2003):

These compounds were tested against T1, Cathepsin K (Homo sapiens, UniProt P43235) (assay: Study of Cathepsin K inhibition (fluorescence, Z-Val-arg-AMC)). Settings: not given.
T1 sequence (P43235 115-329): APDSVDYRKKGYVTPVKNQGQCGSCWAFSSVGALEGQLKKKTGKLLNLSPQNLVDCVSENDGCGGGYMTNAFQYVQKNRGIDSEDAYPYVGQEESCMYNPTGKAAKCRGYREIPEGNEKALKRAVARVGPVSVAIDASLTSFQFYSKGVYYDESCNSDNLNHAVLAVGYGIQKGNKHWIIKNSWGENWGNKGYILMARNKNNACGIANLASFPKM
Assay type: biochemical
Method: Study of Cathepsin K Inhibition:
The products to be tested (10 mM) are diluted to […] in DMSO and distributed into Nunc polystyrene 96 well plates at a rate of 2 μl per well. Column 12 of the plate is reserved for the controls and therefore receives […] of DMSO (without products) per well. The plates are stored at −80° C. and thawed on the day of the experiment.
The products are diluted to 50 μM by adding 38 μl of reaction buffer: sodium acetate 100 mM, EDTA 5 mM, DTT […] pH 5.5. The addition as well as all the operations by pipette are carried out with a CybiWell 96 tip pipette. After mixing the solutions, each product is transferred into 2 wells (duplicates) of a Greiner black 384 well plate at a rate of 10 μl per well. Two 96-well plates can therefore be tested in a 384-well plate.
A solution of substrate at 50 μM, Z-Val-arg-AMC (Calbiochem), is prepared in the reaction buffer. The substrate, is then distributed into all the wells of the 384-well plate (20 μl per well).
A solution of Cathepsin K at 12.5 ng/ml is prepared in the reaction buffer and distributed into all the wells of the 384-well plate (20 μl per well) except for the 16 wells serving as 100% inhibition controls (column 23 and 24, lines I to P) which receive 20 μl of enzyme-free buffer.
The plates are then incubated 2H at ambient temperature, then read on Fluoroskan (Labsystems): excitation 390 nm; emission 460 nm
The final concentrations of each of the reagents are: products 10 μM, substrate 20 μM, enzyme 5 ng/ml.
The % inhibition for each of the products is calculated by using points at 0 and 100% inhibition of each plate as references. The products presenting a significant inhibition are then retested on a range of concentrations from 50 to 0.5 μM to determine an IC50.

Work on `C=CCOC(=O)CC[C@H](NC(=O)[C@@H]1CCCN2C(=O)CC[C@H](NS(=O)(=O)c3ccc4ccccc4c3)C(=O)N12)C(=O)CN1CCN(CC(=O)N2CCCC2)CC1` [Example 117] yielded an IC50 of 7 µM.

Same assay, conditions: substrate Z-Val-arg-AMC 20 μM, enzyme 5 ng/ml, 2H at ambient temperature; read-out: Cathepsin K IC50

In order of falling IC50:
1. [N-]=[N+]=CC(=O)[C@H](Cc1ccccc1)NC(=O)[C@@H]1CCCN2C(=O)CC[C@H](NC(=O)NCCc3cccs3)C(=O)N12 [Example 162]  20 µM
2. C=CCOC(=O)CC[C@H](NC(=O)[C@@H]1CCCN2C(=O)CC[C@H](NS(=O)(=O)c3ccc(C(F)(F)F)cc3)C(=O)N12)C(=O)CN1CCN(CC(=O)N2CCCC2)CC1 [Example 107]  20 µM
3. C[C@H](NC(=O)[C@@H]1CCCN2C(=O)CC[C@H](NC(=O)Nc3ccc(Oc4ccccc4)cc3)C(=O)N12)C(=O)C=[N+]=[N-] [Example 171, 9-[(9S)-[[(4-phenoxyphenyl)amino]carbonyl]amino]-N-((2S)-4-diazo-3-oxo-2-butyl)-octahydro-6,10-dioxo-6H-(1S)-pyridazino[1,2-a][1,2]diazepine-1-carboxamide]  8 µM
4. CC(C)C[C@H](NC(=O)[C@@H]1CCCN2C(=O)CC[C@H](NC(=O)c3ccco3)C(=O)N12)C(=O)C=[N+]=[N-] [Example 341, 9-[(9S)-[(2-furanyl)carbonyl]amino]-N-((3S)-1-diazo-5-methyl-2-oxo-3-hexyl)-octahydro-6,10-dioxo-6H-(1S)-pyridazino[1,2-a][1,2]diazepine-1-carboxamide]  8 µM
5. COc1cccc(C(=O)N[C@H]2CCC(=O)N3CCC[C@@H](C(=O)N[C@@H](CC(C)C)C(=O)C=[N+]=[N-])N3C2=O)c1 [Example 340, 9-[(9S)-(3-methoxybenzoyl)amino]-N-((3S)-1-diazo-5-methyl-2-oxo-3-hexyl)-octahydro-6,10-dioxo-6H-(1S)-pyridazino[1,2-a][1,2]diazepine-1-carboxamide]  7 µM
6. CC(C)C[C@H](NC(=O)[C@@H]1CCCN2C(=O)CC[C@H](NC(=O)Nc3ccc(Oc4ccccc4)cc3)C(=O)N12)C(=O)C=[N+]=[N-] [Example 344, 9-[(9S)-[[(4-phenoxyphenyl)amino]carbonyl]amino]-N-((3S)-1-diazo-5-methyl-2-oxo-3-hexyl)-octahydro-6,10-dioxo-6H-(1S)-pyridazino[1,2-a][1,2]diazepine-1-carboxamide]  5 µM
7. C=CCOC(=O)CC[C@H](NC(=O)[C@@H]1CCCN2C(=O)CC[C@H](NC(=O)C(C)C)C(=O)N12)C(=O)C=[N+]=[N-] [Example 38, (2-propenyl)(4S)6-diazo-4-[[[(1S,9S)-9-[(2-methyl-1-oxo-propyl)amino]-octahydro-6,10-dioxo-6H-pyridazino[1,2-a][1,2]diazepine-1-yl]carbonyl]amino]-5-oxo-hexanoate]  5 µM
8. C=CCOC(=O)CC[C@H](NC(=O)[C@@H]1CCCN2C(=O)CC[C@H](NS(=O)(=O)c3ccc4ccccc4c3)C(=O)N12)C(=O)C=[N+]=[N-] [Example 47, (2-propenyl)(4S)6-diazo-4-[[[(1S,9S)-9-[[(2-naphthalenyl)sulphonyl]amino]-octahydro-6,10-dioxo-6H-pyridazino[1,2-a][1,2]diazepine-1-yl]carbonyl]amino]-5-oxo-hexanoate]  5 µM
9. C=CCOC(=O)CC[C@H](NC(=O)[C@@H]1CCCN2C(=O)CC[C@H](NC(=O)NC3CCCCC3)C(=O)N12)C(=O)C=[N+]=[N-] [Example 42, (2-propenyl)(4S)6-diazo-4-[[[(1S,9S)-9-[[(cyclohexylamino)carbonyl]amino]-octahydro-6,10-dioxo-6H-pyridazino[1,2-a][1,2]diazepine-1-yl]carbonyl]amino]-5-oxo-hexanoate]  4 µM
10. C=CCOC(=O)CC[C@H](NC(=O)[C@@H]1CCCN2C(=O)CC[C@H](NC(=O)c3cccc(OC)c3)C(=O)N12)C(=O)C=[N+]=[N-] [Example 39, (2-propenyl)(4S)6-diazo-4-[[[(1S,9S)-9-[(3-methoxybenzoyl)amino]-octahydro-6,10-dioxo-6H-pyridazino[1,2-a][1,2]diazepine-1-yl]carbonyl]amino]-5-oxo-hexanoate]  3 µM
